ChEMBL document CHEMBL1144089, “New geodiamolides from the sponge Cymbastela sp. collected in Papua New Guinea” (J Nat Prod, 1999)
In brackets after ≈: the same amount, converted by molar mass.

Columns and labels:
[1] = Cytotoxicity against human U373 cells; type: functional, cell-based, U-373MG ATCC; details: U373 MG
HEY = assay: Cytotoxicity against human HEY cells; type: functional, cell-based

Question: Which IC50 ([1]; read-out: IC50) does the source give for `C/C1=C\[C@H](C)C[C@H](C)OC(=O)[C@H](C)NC(=O)[C@@H](Cc2ccc(O)c(I)c2)N(C)C(=O)[C@H](C)NC(=O)[C@@H](C)C1` [GEODIAMOLIDE A] here?
Answer: Its IC50 is 16 µg/mL (≈ 24.9 µM).

Question: What about the IC50 (HEY; read-out: IC50) of the same compound?
Answer: The IC50 was 43 µg/mL (≈ 67 µM).

Question: What does the source list for `C=C1C[C@H](C)C(=O)N[C@@H](C)C(=O)N(C)[C@H](Cc2ccc(O)c(I)c2)C(=O)N[C@@H](C)C(=O)O[C@@H](C)C[C@@H](C)C1=O` [GEODIAMOLIDE G]?
Answer: IC50 [1]: 7.7 µg/mL (≈ 11.7 µM); IC50 (HEY): 8.6 µg/mL (≈ 13.1 µM)
